Experimental data from US20120142682A1, “ANT[…] INHIBITING BACTERIAL MONO-ADP-RIBOSYLT[…]” (UNIVERSITY OF GUELPH, priority 2010, published 2012).
Read-outs that look alike come from different tables or passages of the source.

Legend:
[1] = test system: Saccharomyces cerevisiae cells expressing the catalytic domain of P. aeruginosa ExoA (ExoAc); assay: Yeast-based compound screen; assay type: cell-based; settings: compound 50 μM; for Protection in Yeast: w303 strain, growth restored
[2] = test system: ExoA intoxicated C38 cells; assay type: cell-based, Human
cholix toxin = cholix toxin (Vibrio cholerae, UniProt Q5EK40); assay: biochemical; assay type: biochemical
Chain of cholix toxin (Q5EK40 33-666 limits assumed): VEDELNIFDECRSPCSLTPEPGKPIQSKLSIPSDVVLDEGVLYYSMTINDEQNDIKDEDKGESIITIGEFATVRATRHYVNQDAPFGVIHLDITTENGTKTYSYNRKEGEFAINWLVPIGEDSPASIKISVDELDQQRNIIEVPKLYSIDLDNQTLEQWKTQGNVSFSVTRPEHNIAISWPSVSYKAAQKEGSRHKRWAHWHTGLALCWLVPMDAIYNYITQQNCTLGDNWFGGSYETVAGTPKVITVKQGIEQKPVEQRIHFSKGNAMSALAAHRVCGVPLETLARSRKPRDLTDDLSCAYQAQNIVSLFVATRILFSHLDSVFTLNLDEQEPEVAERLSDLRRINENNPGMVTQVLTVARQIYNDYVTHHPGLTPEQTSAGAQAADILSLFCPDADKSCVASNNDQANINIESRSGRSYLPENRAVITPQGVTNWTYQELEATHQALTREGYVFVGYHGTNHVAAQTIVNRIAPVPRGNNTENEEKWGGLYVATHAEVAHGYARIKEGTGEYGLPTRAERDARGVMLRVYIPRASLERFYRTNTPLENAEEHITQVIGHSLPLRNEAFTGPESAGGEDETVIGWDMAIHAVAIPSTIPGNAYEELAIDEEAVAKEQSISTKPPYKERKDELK

WT ExoAc = WT ExoAc (Pseudomonas aeruginosa, UniProt P11439); assay: biochemical; assay type: binding, P. aeruginosa
Chain of WT ExoAc (P11439 430-638 limits assumed): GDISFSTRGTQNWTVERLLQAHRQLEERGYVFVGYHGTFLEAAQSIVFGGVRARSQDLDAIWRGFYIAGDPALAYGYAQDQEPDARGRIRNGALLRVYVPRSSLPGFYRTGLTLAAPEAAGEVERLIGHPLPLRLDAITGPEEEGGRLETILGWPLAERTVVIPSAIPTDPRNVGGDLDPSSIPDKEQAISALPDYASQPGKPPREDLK

Row | SMILES | Protection in Yeast [1] | protection of C38 cells against ExoA (in words) [2] | other results
1 | COC(=O)c1[nH]c(C)c(C(=O)C2=C(O)C(=O)N(CCCN3CCOCC3)C2c2ccccn2)c1C (stereo not drawn) [Compound V21] | − (Compounds showing less than 5% growth were scored (−)) | Weak protection | 
2 | O=c1cc(NCCNc2cc(=O)oc3ccccc23)c2ccccc2o1 [Compound V1] | − (Compounds showing less than 5% growth were scored (−)) |  | 
3 | O=C1NCC2c3cc(S(=O)(=O)O)ccc3Oc3cccc1c32 (stereo not drawn) [Compound P8] | − (Compounds showing less than 5% growth were scored (−)) | modest | IC50 (cholix toxin; read-out: IC50): 1040 ± 136 nM; Ki (cholix toxin; read-out: Ki): 136 ± 3 nM; difference in affinity between the two binding sites (WT ExoAc): ~50 fold; Kd (WT ExoAc; read-out: Kd): 160 nM; Kd (WT ExoAc; read-out: Kd, second (lower affinity) binding constant (converted)): 5210 nM
4 | COc1ccc(Nc2nc(N3CCN(CCO)CC3)nc3ccccc23)c(OC)c1 [Compound V8] | − (Compounds showing less than 5% growth were scored (−)) |  | 
5 | CC1(C)C(=O)N(CC(O)Cn2cnc3ccccc32)C(=O)N1CN1C(=O)N(CC(O)Cn2cnc3ccccc32)C(=O)C1(C)C (stereo not drawn) [Compound V11] | − (Compounds showing less than 5% growth were scored (−)) | Weak protection | 
6 | Cc1cc(Nc2ccc(O)cc2)c2ccccc2n1.Cl [Compound V16] | − (Compounds showing less than 5% growth were scored (−)) | Weak protection | 
7 | CC(=O)Nc1c(Nc2ccccc2)c2ccccc2oc1=O [Compound V31] | + (5-25% (+)) | Weak protection | protection in yeast against ExoAc (in words) [1]: weak protection
8 | O=C(CCCC(=O)Nc1ccc(F)c(Cl)c1)Nc1ccc(F)c(Cl)c1 [Compound V5] | toxic (any compound that reduced cell viability to less than 30%) |  | 
9 | CCOC(=O)c1cnc2ccc(OCC)cc2c1Nc1ccc(C)cc1C [Compound V28] | toxic (any compound that reduced cell viability to less than 30%) |  | 
10 | Nc1c(NCCCN2CCOCC2)c2ccccc2oc1=O [Compound V9] | − (Compounds showing less than 5% growth were scored (−)) | moderate activity | 
11 | Brc1cccc(CNc2nc3ccccc3n2CCN2CCOCC2)c1 [Compound V26] | − (Compounds showing less than 5% growth were scored (−)) | Weak protection | 
12 | CCN(CC)CCn1c(NCc2nc3ccccc3n2Cc2ccccc2)nc2ccccc21 [Compound V3] | − (Compounds showing less than 5% growth were scored (−)) |  | 
13 | CN1CCN(CCCNc2c(N)c(=O)oc3ccccc23)CC1 [Compound V23] | ++ (25-50% (++)) | moderate activity | protection in yeast against ExoAc (in words) [1]: modest protection; LD50 of ExoA in the presence of compound [2]: 199 ± 30 ng/mL
14 | CCn1c(SCc2nc3ccccc3c(=O)[nH]2)nnc1-c1ccc(Cl)cc1 [Compound V15] | + (5-25% (+)) | moderate activity | protection in yeast against ExoAc (in words) [1]: weak protection; LD50 of ExoA in the presence of compound [2]: 208 ± 41 ng/mL
15 | CN1CCN(c2c(N)c(=O)oc3ccccc23)CC1 [Compound V2] | − (Compounds showing less than 5% growth were scored (−)) |  | 
16 | Cn1c(=O)[nH]c(=O)c2c1nc(N1CCCCC1)n2CCCSc1nc2ccccc2s1 [Compound V19] | − (Compounds showing less than 5% growth were scored (−)) |  | 
17 | O=C(Nc1c2ccccc2nc2ccccc12)c1ccc([N+](=O)[O-])cc1 [Compound V7] | toxic (any compound that reduced cell viability to less than 30%) |  | 

Row | SMILES | Protection in Yeast [1] | protection of C38 cells against ExoA (in words) [2] | other results
18 | Cc1cccc(Cn2c(N3CCCCC3C)nc3c2c(=O)[nH]c(=O)n3C)c1 (stereo not drawn) [Compound V10] | − (Compounds showing less than 5% growth were scored (−)) | Weak protection | 
19 | O=c1[nH]c2ccccc2c2ccccc12 [PJ97A, reference compound] |  | strong protection | IC50 (cholix toxin; read-out: IC50): 4670 ± 175 nM; Ki (cholix toxin; read-out: Ki): 610 ± 175 nM; Kd (WT ExoAc; read-out: Kd): 393 ± 64 nM; LD50 of ExoA in the presence of compound [2]: > 750 ng/mL; increase of the LD50 of ExoA [2]: ~12 fold
20 | Cc1[nH]c2ccccc2c1CN1CCN(c2ccccn2)CC1 [Compound V14] | − (Compounds showing less than 5% growth were scored (−)) |  | 
21 | CCc1ccc2ncc(C(=O)O)c(O)c2c1 [Compound V27] | − (Compounds showing less than 5% growth were scored (−)) |  | 
22 | COc1ccc(NC(=O)CC2C(=O)N(c3ccc(Cl)cc3)C(=S)N2CCc2ccncc2)cc1 (stereo not drawn) [Compound V18] | − (Compounds showing less than 5% growth were scored (−)) |  | 
23 | Cn1c(=O)c2[nH]c(CN3CCc4ccccc4C3)nc2n(C)c1=O [Compound V12] | − (Compounds showing less than 5% growth were scored (−)) | moderate activity | LD50 of ExoA in the presence of compound [2]: 228 ± 12 ng/mL; increase of the LD50 of ExoA [2]: ~3 fold
24 | CCOC(=O)c1[nH]c(C)c(C(=O)C2=C(O)C(=O)N(CCCN3CCOCC3)C2c2cccc(F)c2)c1C (stereo not drawn) [Compound V25] | − (Compounds showing less than 5% growth were scored (−)) | Weak protection | 
25 | CC1CCCCN1c1nc2c(c(=O)[nH]c(=O)n2C)n1Cc1ccccc1 (stereo not drawn) [Compound V29] | + (5-25% (+)) | Weak protection | protection in yeast against ExoAc (in words) [1]: weak protection
26 | CCN(CC)CCn1c(NCc2ccc(F)cc2)nc2ccccc21.Cl.Cl [Compound V24] | − (Compounds showing less than 5% growth were scored (−)) | moderate activity | LD50 of ExoA in the presence of compound [2]: 238 ± 16 ng/mL
27 | Nc1c(C(=O)Nc2ccc(S(N)(=O)=O)cc2)sc2nc3c(cc12)CCCC3 [Compound V6] | − (Compounds showing less than 5% growth were scored (−)) |  | 
28 | O=C(NCCNc1ccnc2cc(Cl)ccc12)c1ccccc1F [Compound V4] | − (Compounds showing less than 5% growth were scored (−)) |  | 
29 | CN(C)CC(=O)Nc1ccc2[nH]c(=O)c3ccccc3c2c1.Cl [PJ34, N-(6-oxo-5,6-dihydrophenanthridin-2-yl)-(N,N-dimethylamino)acetamide hydrochloride, reference compound] | − (Compounds showing less than 5% growth were scored (−)) |  | IC50 (cholix toxin): 280 ± 70 nM; Ki (cholix toxin): 37 ± 9 nM; Kd (WT ExoAc): 820 ± 54 nM
30 | CN(C)CCNc1c(N)c(=O)oc2ccccc12 [Compound V22] | − (Compounds showing less than 5% growth were scored (−)) | Weak protection | 
31 | Nc1ccc2c3c(cccc13)C(=O)NC2=O [Compound 4-NAP, reference compound] | ++ (25-50% (++)) |  | 
32 | O=C(CC1C(=O)NCCN1C(=O)CN1CCN(CCO)CC1)Nc1ccccc1 (stereo not drawn) [Compound V20] | − (Compounds showing less than 5% growth were scored (−)) |  | 
33 | O=C(C1CCCN(Cc2c[nH]c3ccccc23)C1)N1CCCCCC1 (stereo not drawn) [Compound V13] | − (Compounds showing less than 5% growth were scored (−)) |  | 
34 | Cn1c(=O)c2[nH]c(CNCc3ccccc3Cl)nc2n(C)c1=O [Compound V17] | − (Compounds showing less than 5% growth were scored (−)) | moderate activity | 
